Assay results taken from patent US20230203098A1, “HUMAN TRANSFERRIN RECEPTOR BINDING PEPTIDE” (priority 2020, published 2023).
Read-outs that look alike come from different tables or passages of the source. Blank lines part the entries; values can stand above or below the compound they belong to. *1 amine or outer side, *2 acyl side, *3 side chain or, on linkers, in order; H or OH if unused. Where a SMILES comes first, the peptide text is derived from it. Bridges are numbered along the chain shown (N, C = ends). [ ]: non-standard residue; d: D form. The star is where a group is joined. PEG12 = NCCOCCOCCOCCOCCOCCOCCOCCOCCOCCOCCOCCOCCC(=O)O; X3 = NC(=O)Cn1cc(C[C@H](N[*:1])C(=O)[*:2])c2ccccc21; NMePhe(3-Cl) = CN[C@@H](Cc1cccc(Cl)c1)C(=O)O; NMeW = CN[C@@H](Cc1c[nH]c2ccccc12)C(=O)O; X4 = O=C1C=CC(=O)N1CC1CCC(C(=O)*)CC1; NMeY = CN[C@@H](Cc1ccc(O)cc1)C(=O)O; NMeF = CN[C@@H](Cc1ccccc1)C(=O)O; Chg = N[C@H](C(=O)O)C1CCCCC1; PEG4 = NCCOCCOCCOCCOCCC(=O)O; Nva = CCC[C@H](N)C(=O)O; Abu = CC[C@H](N)C(=O)O; Aib = CC(C)(N)C(=O)O

Molecular target: transferrin receptor (hTfR) (Homo sapiens, UniProt P02786)
Sequence (P02786 whole entry): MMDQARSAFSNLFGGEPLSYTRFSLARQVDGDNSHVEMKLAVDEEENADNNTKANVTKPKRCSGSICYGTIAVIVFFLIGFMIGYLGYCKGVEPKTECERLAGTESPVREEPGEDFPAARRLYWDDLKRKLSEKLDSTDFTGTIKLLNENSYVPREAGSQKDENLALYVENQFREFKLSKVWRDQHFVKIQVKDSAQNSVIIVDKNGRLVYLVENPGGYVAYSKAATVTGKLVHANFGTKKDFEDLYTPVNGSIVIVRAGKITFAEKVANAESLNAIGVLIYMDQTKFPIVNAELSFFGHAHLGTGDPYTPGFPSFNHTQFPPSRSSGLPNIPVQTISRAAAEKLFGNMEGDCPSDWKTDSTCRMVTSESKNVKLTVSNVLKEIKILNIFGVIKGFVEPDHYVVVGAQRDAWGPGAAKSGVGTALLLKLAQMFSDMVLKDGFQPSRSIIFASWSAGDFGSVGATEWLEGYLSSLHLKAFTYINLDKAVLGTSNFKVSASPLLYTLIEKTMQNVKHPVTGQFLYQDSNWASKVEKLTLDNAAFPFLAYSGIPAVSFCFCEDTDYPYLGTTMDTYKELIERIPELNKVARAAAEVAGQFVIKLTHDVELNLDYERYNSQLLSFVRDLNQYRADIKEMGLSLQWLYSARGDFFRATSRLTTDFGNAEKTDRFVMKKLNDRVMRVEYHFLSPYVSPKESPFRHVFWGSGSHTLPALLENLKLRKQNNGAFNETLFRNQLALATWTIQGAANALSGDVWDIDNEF
Assay: Intermolecular interaction evaluation test between transferrin receptor (hTfR) and peptide by surface plasmon resonance (SPR)
Type: binding
Method in brief: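 Receptor was Ni-captured and EDC/NHS-fixed on an NTA chip; running buffer HEPES pH 8.0 with NaCl, Tween 20, BSA and 1.0% DMSO.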

[1] = surface plasmon resonance, peptide vs hTfR, read-out: KD value for hTfR by SPR (class symbol)
[2] = surface plasmon resonance, peptide vs hTfR, read-out: KD value, hTfR binding by SPR (class symbol)
[3] = surface plasmon resonance, hTfR, read-out: KD value for hTfR by SPR (class symbol)

Structure (SMILES): CC[C@H](C)[C@@H]1NC(=O)[C@H](Cc2ccc(O)cc2)NC(=O)[C@H](Cc2ccc(O)cc2)NC(=O)[C@H](CC(N)=O)NC(=O)[C@H](Cc2c[nH]c3ccccc23)NC(=O)[C@H](C(C)C)NC(=O)[C@H](Cc2ccccc2)N(C)C(=O)[C@H](C(C)C)NC(=O)[C@H](C)NC(=O)CSC[C@@H](C(=O)NCC(=O)NCC(=O)N[C@@H](CO)C(=O)NCC(=O)N[C@@H](CO)C(=O)N[C@@H](CO)C(=O)NCC(=O)NCC(=O)N[C@@H](CO)C(=O)NCC(=O)N[C@@H](CO)C(=O)N[C@@H](CO)C(=O)N[C@@H](CCCCNC(=O)C2CCC(CN3C(=O)C=CC3=O)CC2)C(N)=O)NC(=O)[C@H](Cc2ccc(O)cc2)N(C)C(=O)[C@H](Cc2ccc(O)cc2)NC(=O)[C@H](CCCNC(=N)N)NC(=O)[C@H](CCCNC(=N)N)NC(=O)[C@H]([C@@H](C)CC)NC1=O (some centres unmarked) [compound 196]
Kd (hTfR binding by SPR, hTfR No. 894 variant peptides, linker-added peptides and payload conjugates (Table 2), read-out: KD value obtained from the SPR measurement): 1 to 100 nM

Structure (SMILES): CC[C@H](C)[C@@H]1NC(=O)[C@H](Cc2ccc(OC)cc2)NC(=O)[C@H](Cc2ccc(O)cc2)NC(=O)[C@H](CC(N)=O)NC(=O)[C@H](Cc2c[nH]c3ccccc23)NC(=O)[C@H](C(C)C)NC(=O)[C@H](Cc2cccc(Cl)c2)N(C)C(=O)[C@H](CCC(=O)O)NC(=O)[C@H](C)NC(=O)CSC[C@@H](C(=O)NCC(=O)NCC(=O)N[C@@H](CO)C(=O)NCC(=O)N[C@@H](CO)C(=O)NCC(=O)N[C@@H](CCCCNC(=O)C2CCC(CN3C(=O)C=CC3=O)CC2)C(N)=O)NC(=O)[C@H](Cc2ccc(O)cc2)N(C)C(=O)[C@H](Cc2ccccc2)NC(=O)[C@@H](CCCNC(=N)N)NC(=O)[C@H](CCCNC(=N)N)NC(=O)[C@H]([C@@H](C)CC)NC1=O (some centres unmarked) [compound 222] ({CH2CO}-AE[NMePhe(3-Cl)]VWNYY(Me)IIR[dR]F[NMeY]CGGSGSGK(X4)-NH2; thioether N-15)
Kd (SPR, peptides, linker-added peptides and FITC conjugates, Patent ID 203-230, read-out: KD): 1 to 100 nM

Structure (SMILES): CC[C@H](C)[C@@H]1NC(=O)[C@H](C2CCCCC2)NC(=O)[C@H](Cc2ccc(O)cc2)NC(=O)[C@H](Cc2ccc(O)cc2)NC(=O)[C@H](CC(N)=O)NC(=O)[C@H](Cc2c[nH]c3ccccc23)NC(=O)[C@H](C(C)C)NC(=O)[C@H](Cc2ccccc2)N(C)C(=O)[C@H](C(C)C)NC(=O)[C@H](C)NC(=O)CSC[C@@H](C(=O)NCCOCCOCCOCCOCCOCCOCCOCCOCCOCCOCCOCCOCCC(N)=O)NC(=O)[C@H](Cc2ccc(O)cc2)N(C)C(=O)[C@H](Cc2ccc(O)cc2)NC(=O)[C@H](CCCNC(=N)N)NC(=O)[C@H](CCCNC(=N)N)NC1=O [compound 283] ({CH2CO}-AV[NMeF]VWNYY[Chg]IRRY[NMeY]C[PEG12]-NH2; thioether N-15)
Kd (binding to hTfR by SPR, Table 2 peptides, read-out: KD value (SPR) class): 1 to 100 nM

Structure (SMILES): CC[C@@H]1NC(=O)CSC[C@@H](C(=O)NCCOCCOCCOCCOCCOCCOCCOCCOCCOCCOCCOCCOCCC(N)=O)NC(=O)[C@H](Cc2ccc(O)cc2)N(C)C(=O)[C@H](Cc2ccc(O)cc2)NC(=O)[C@H](CCCNC(=N)N)NC(=O)[C@H](CCCNC(=N)N)NC(=O)[C@H]([C@@H](C)CC)NC(=O)[C@H]([C@@H](C)CC)NC(=O)[C@H](Cc2ccc(O)cc2)NC(=O)[C@H](Cc2ccc(O)cc2)NC(=O)[C@H](CC(N)=O)NC(=O)[C@H](Cc2c[nH]c3ccccc23)NC(=O)[C@H](C(C)C)NC(=O)[C@H](Cc2ccccc2)N(C)C(=O)[C@H](C(C)C)NC1=O [compound 111] ({CH2CO}-[Abu]V[NMeF]VWNYYIIRRY[NMeY]C[PEG12]-NH2; thioether N-15)
Kd (SPR, hTfR No. 894 variants with PEG12c linker (Table 2), read-out: KD): 1 to 100 nM

Structure (SMILES): CC[C@H](C)[C@@H]1NC(=O)[C@H](Cc2ccc(O)cc2)NC(=O)[C@H](Cc2ccc(O)cc2)NC(=O)[C@H](CC(N)=O)NC(=O)[C@H](Cc2c[nH]c3ccccc23)NC(=O)[C@H](C(C)C)NC(=O)[C@H](Cc2ccccc2)NC(=O)[C@H](C(C)C)NC(=O)[C@H](C)NC(=O)CSC[C@H](C(=O)NCCOCCOCCOCCOCCC(=O)N[C@@H](CNC(=O)c2ccc(-c3c4ccc(=O)cc-4oc4cc(O)ccc34)c(C(=O)O)c2)C(N)=O)NC(=O)[C@H](Cc2ccc(O)cc2)N(C)C(=O)[C@H](Cc2ccc(O)cc2)NC(=O)[C@H](CCCNC(=N)N)NC(=O)[C@H](CCCNC(=N)N)NC(=O)[C@H]([C@@H](C)CC)NC1=O [compound 160]
Kd (SPR, linker and payload (FITC, VivoTag) conjugates, read-out: KD): 1 to 100 nM

Structure (SMILES): CC[C@H](C)[C@@H]1NC(=O)[C@H](Cc2ccc(OC)cc2)NC(=O)[C@H](Cc2ccc(O)cc2)NC(=O)[C@H](CC(N)=O)NC(=O)[C@H](Cc2c[nH]c3ccccc23)NC(=O)[C@H](C(C)C)NC(=O)[C@H](Cc2cccc(Cl)c2)N(C)C(=O)[C@H](C(C)C)NC(=O)[C@H](C)NC(=O)CSC[C@@H](C(=O)NCC(=O)NCC(=O)N[C@@H](CO)C(=O)NCC(=O)N[C@@H](CO)C(=O)NCC(=O)N[C@@H](CCCCN=[N+]=[N-])C(N)=O)NC(=O)[C@H](Cc2ccc(O)cc2)N(C)C(=O)[C@H](Cc2ccccc2)NC(=O)[C@@H](CCCCN)NC(=O)[C@H](CCCNC(=N)N)NC(=O)[C@H]([C@@H](C)CC)NC1=O [compound 313]
Kd [2]: 1 to 100 nM

Other lines, results leading:

Kd [1]: 1 to 100 nM
Structure (SMILES): CC[C@H](C)[C@@H]1NC(=O)[C@H](Cc2ccc(O)cc2)NC(=O)[C@H](Cc2ccc(O)cc2)NC(=O)[C@H](CC(N)=O)NC(=O)[C@H](Cc2c[nH]c3ccccc23)NC(=O)[C@H](C(C)C)NC(=O)[C@H](Cc2ccccc2)N(C)C(=O)[C@H](C(C)C)NC(=O)[C@H](C)NC(=O)CSC[C@@H](C(=O)NCC(=O)O)NC(=O)[C@H](Cc2ccc(O)cc2)N(C)C(=O)[C@H](Cc2ccc(O)cc2)NC(=O)[C@H](CCCNC(=N)N)NC(=O)[C@H](CCCNC(=N)N)NC(=O)[C@H]([C@@H](C)CC)NC1=O [compound 421]

Kd [1]: 1 to 100 nM
Structure (SMILES): CC[C@H](C)[C@@H]1NC(=O)[C@H](Cc2ccc(O)cc2)NC(=O)[C@H](Cc2ccc(O)cc2)NC(=O)[C@H](CC(N)=O)NC(=O)[C@H](Cc2c[nH]c3ccccc23)N(C)C(=O)[C@H](C(C)C)NC(=O)[C@H](Cc2cccc(Cl)c2)N(C)C(=O)[C@@H]2CCC(=O)NCC(=O)NCCCC[C@H](NC(=O)[C@H]([C@@H](C)CC)NC1=O)C(=O)N[C@@H](CCCNC(=N)N)C(=O)N[C@@H](Cc1ccc(O)cc1)C(=O)N(C)[C@@H](Cc1ccc(O)cc1)C(=O)N[C@H](C(N)=O)CSCC(=O)N[C@@H](C)C(=O)N2 [compound 417]

Kd [2]: 1 to 100 nM
Structure (SMILES): CC[C@H](C)[C@@H]1NC(=O)[C@H](Cc2ccc(O)cc2)NC(=O)[C@H](Cc2ccc(O)cc2)NC(=O)[C@H](CC(N)=O)NC(=O)[C@H](Cc2c[nH]c3ccccc23)N(C)C(=O)[C@H](C(C)C)NC(=O)[C@H](Cc2ccccc2)N(C)C(=O)[C@H](C(C)C)NC(=O)[C@H](C)NC(=O)CSC[C@@H](C(N)=O)NC(=O)[C@H](Cc2ccc(O)cc2)N(C)C(=O)[C@H](Cc2ccc(O)cc2)NC(=O)[C@H](CCCNC(=N)N)NC(=O)[C@H](CCCNC(=N)N)NC(=O)[C@H]([C@@H](C)CC)NC1=O [compound 299]

Kd [3]: 1 to 100 nM
Structure (SMILES): CCC[C@@H]1NC(=O)[C@H]([C@@H](C)CC)NC(=O)[C@H]([C@@H](C)CC)NC(=O)[C@H](Cc2ccc(OC)cc2)NC(=O)[C@H](Cc2ccc(O)cc2)NC(=O)[C@H](CC(N)=O)NC(=O)[C@H](Cc2c[nH]c3ccccc23)N(C)C(=O)[C@H](C(C)C)NC(=O)[C@H](Cc2cccc(Cl)c2)N(C)C(=O)[C@H](C(C)C)NC(=O)[C@H](C)NC(=O)CSC[C@@H](C(=O)NCCOCCOCCOCCOCCC(N)=O)NC(=O)[C@H](Cc2ccc(O)cc2)N(C)C(=O)[C@H](Cc2ccccc2)NC(=O)[C@@H](CCCNC(=N)N)NC1=O [compound 360] ({CH2CO}-AV[NMePhe(3-Cl)]V[NMeW]NYY(Me)II[Nva][dR]F[NMeY]C[PEG4]-NH2; thioether N-15)

Kd [2]: 100 to 1000 nM
Structure (SMILES): CC[C@H](C)[C@@H]1NC(=O)[C@H](Cc2ccc(OC)cc2)NC(=O)[C@H](Cc2ccc(O)cc2)NC(=O)[C@H](CC(N)=O)NC(=O)[C@H](Cc2cn(CC(N)=O)c3ccccc23)NC(=O)[C@H](C(C)C)NC(=O)[C@H](Cc2cccc(Cl)c2)N(C)C(=O)[C@H](C(C)C)NC(=O)[C@H](C)NC(=O)CSC[C@@H](C(N)=O)NC(=O)[C@H](Cc2ccc(O)cc2)N(C)C(=O)[C@H](Cc2ccccc2)NC(=O)[C@@H](CCCNC(=N)N)NC(=O)C(C)(C)NC(=O)[C@H]([C@@H](C)CC)NC1=O [compound 304] ({CH2CO}-AV[NMePhe(3-Cl)]V[X3]NYY(Me)II[Aib][dR]F[NMeY]C-NH2; thioether N-15)

Kd [3]: 1 to 100 nM
Structure (SMILES): CC[C@H](C)[C@@H]1NC(=O)[C@H](Cc2ccc(OC)cc2)NC(=O)[C@H](Cc2ccc(O)cc2)NC(=O)[C@H](CC(N)=O)NC(=O)[C@H](Cc2c[nH]c3ccccc23)N(C)C(=O)[C@H](C(C)C)NC(=O)[C@H](Cc2cccc(Cl)c2)N(C)C(=O)[C@H](C(C)C)NC(=O)[C@H](C)NC(=O)CSC[C@@H](C(N)=O)NC(=O)[C@H](Cc2ccc(O)cc2)N(C)C(=O)[C@H](Cc2ccccc2)NC(=O)[C@H](CCCNC(=N)N)NC(=O)[C@H](CCCNC(=N)N)NC(=O)[C@H]([C@@H](C)CC)NC1=O [compound 386]

Kd [3]: 1 to 100 nM
Structure (SMILES): CC[C@H](C)[C@@H]1NC(=O)[C@H](Cc2ccc(OC)cc2)NC(=O)[C@H](Cc2ccc(O)cc2)NC(=O)[C@H](CC(N)=O)NC(=O)[C@H](Cc2c[nH]c3ccccc23)N(C)C(=O)[C@H](C(C)C)NC(=O)[C@H](Cc2cccc(Cl)c2)N(C)C(=O)[C@H](C(C)C)NC(=O)[C@H](C)NC(=O)CSC[C@@H](C(N)=O)NC(=O)[C@H](Cc2ccc(O)cc2)N(C)C(=O)[C@H](Cc2ccccc2)NC(=O)[C@@H](CCCNC(=N)N)NC(=O)[C@H](CCCNC(=N)N)N(C)C(=O)[C@H]([C@@H](C)CC)NC1=O [compound 382]

Kd [3]: < 1 nM
Structure (SMILES): CC[C@H](C)[C@@H]1NC(=O)[C@H](Cc2ccc(OC)cc2)NC(=O)[C@H](Cc2ccc(O)cc2)NC(=O)[C@H](CC(N)=O)NC(=O)[C@H](Cc2c[nH]c3ccccc23)N(C)C(=O)[C@H](C(C)C)NC(=O)[C@H](Cc2cccc(Cl)c2)N(C)C(=O)[C@H](C(C)C)NC(=O)[C@H](C)NC(=O)CSC[C@@H](C(N)=O)NC(=O)[C@H](Cc2ccc(O)cc2)N(C)C(=O)[C@H](Cc2ccccc2)NC(=O)[C@H](CCC(=O)NCCOCCOCCOCCOCCOCCOCCOCCOC)NC(=O)[C@H](CCCNC(=N)N)NC(=O)[C@H]([C@@H](C)CC)NC1=O [compound 384]
